According to patent publication US9873680B2 (Gilead Sciences, Inc., priority 2014, dated 2018):
Read-outs that look alike come from different tables or passages of the source.

Tests used:
[1] = tested on: HIV-IIIb; assay: Test A: Antiviral Assay in MT4 Cells; assay type: cell-based, HIV-1
In short: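 Readout was CellTiter-Glo luminescence after 10 min room-temperature lysis, taken 5 days after plating at 37 °C. The 2000 MT-4 cells per well, mixed 1 h beforehand with HIV-IIIb (m.o.i. 0.003), went straight onto the diluted compound.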

[2] = Test B: Cytotoxicity Assay; assay type: cell-based; conditions: human, uninfected MT-4 cells, CellTiter-Glo
Protocol: Test B: Cytotoxicity Assay Compound cytotoxicity and the corresponding CC50 values was determined using the same protocol as described in the antiviral assay (Test A) except that uninfected cells were used.

[3] = Human immunodeficiency virus 1, MT4, 120 h, 0.2 μM drug concentration, MT-4 cells infected with HIV-IIIb, 5 days, values normalized to 100%, average over time, read-out: % inhibition at 0.2 μM (percent inhibition of virus-induced cell killing)

| SMILES | inhibition at 0.2 µM ([1]; Human immunodeficiency virus 1, IIIB, MT4, 0.2 μM drug concentration, comparison with previously published compounds, read-out: Response at 0.2 μM (percent inhibition of virus-induced cell killing)) [%] | inhibition at 2 µM ([1]; Human immunodeficiency virus 1, IIIB, MT4, 2 μM drug concentration, comparison with previously published compounds, read-out: Response at 2 μM (percent inhibition of virus-induced cell killing)) [%] | inhibition at 0.2 µM [1, 3] [%] | CC50 at 5 days [2] [µM] | inhibition at 0.2 µM ([1]; Human immunodeficiency virus 1, IIIB, MT4, 120 h, read-out: % inhibition at 0.2 μM (percent inhibition of virus-induced cell killing)) [%] |
| --- | --- | --- | --- | --- | --- |
| Cn1nc(NS(C)(=O)=O)c2c(Cl)ccc(-c3ccc(C#CC4CC4)nc3[C@H](Cc3cc(F)cc(F)c3)NC(=O)Cn3nc(C(F)F)c4c3C(F)(F)[C@@H]3C[C@H]43)c21 [Compound 96, N—((S)-1-(3-(4-chloro-1-methyl-3-(methylsulfonamido)-1H-indazol-7-yl)-6-(cyclopropylethynyl)pyridin-2-yl)-2-(3,5-difluorophenyl)ethyl)-2-((3bS,4aR)-3-(difluoromethyl)-5,5-difluoro-3b,4,4a,5-tetrahydro-1H-cyclopropa[3,4]cyclopenta[1,2-c]pyrazol-1-yl)acetamide] | 82 | 82 | 82 | 20.1 | – |
| Cn1nc(NS(C)(=O)=O)c2c(Cl)ccc(-c3ccc(C#C[C@@H]4COC(=O)N4)nc3[C@H](Cc3cc(F)cc(F)c3)NC(=O)Cn3nc(C(F)F)c4c3C(F)(F)[C@@H]3C[C@H]43)c21 [Compound 97C, N—((S)-1-(3-(4-chloro-1-methyl-3-(methylsulfonamido)-1H-indazol-7-yl)-6-(((R)-2-oxooxazolidin-4-yl)ethynyl)pyridin-2-yl)-2-(3,5-difluorophenyl)ethyl)-2-((3bS,4aR)-3-(difluoromethyl)-5,5-difluoro-3b,4,4a,5-tetrahydro-1H-cyclopropa[3,4]cyclopenta[1,2-c]pyrazol-1-yl)acetamide] | – | – | 89 | 15.2 | – |
| Cn1nc(NS(C)(=O)=O)c2c(Cl)ccc(-c3ccc(C#CC(C)(C)n4cn[nH]c4=O)nc3[C@H](Cc3cc(F)cc(F)c3)NC(=O)Cn3nc(C(F)F)c4c3C(F)(F)[C@@H]3C[C@H]43)c21 [Compound 98D, N—((S)-1-(3-(4-chloro-1-methyl-3-(methylsulfonamido)-1H-indazol-7-yl)-6-(3-methyl-3-(5-oxo-1H-1,2,4-triazol-4(5H)-yl)but-1-yn-1-yl)pyridin-2-yl)-2-(3,5-difluorophenyl)ethyl)-2-((3bS,4aR)-3-(difluoromethyl)-5,5-difluoro-3b,4,4a,5-tetrahydro-1H-cyclopropa[3,4]cyclopenta[1,2-c]pyrazol-1-yl)acetamide] | – | – | 94 | 10.4 | – |
| Cn1nc(NS(C)(=O)=O)c2c(Cl)ccc(-c3cc(N)c(C#CC4(O)CC(F)(F)C4)nc3[C@H](Cc3cc(F)cc(F)c3)NC(=O)Cn3nc(C(F)(F)F)c4c3C(F)(F)[C@@H]3C[C@H]43)c21 [Compound 100, N—((S)-1-(5-amino-3-(4-chloro-1-methyl-3-(methylsulfonamido)-1H-indazol-7-yl)-6-((3,3-difluoro-1-hydroxycyclobutyl)ethynyl)pyridin-2-yl)-2-(3,5-difluorophenyl)ethyl)-2-((3bS,4aR)-5,5-difluoro-3-(trifluoromethyl)-3b,4,4a,5-tetrahydro-1H-cyclopropa[3,4]cyclopenta[1,2-c]pyrazol-1-yl)acetamide] | – | – | – | 8.2 | 87 |
| Cn1nc(NS(C)(=O)=O)c2c(Cl)ccc(-c3ccc(C#CC4(O)CC(F)(F)C4)nc3[C@H](Cc3cccc(F)c3)NC(=O)Cn3nc(C(F)F)c4c3C(F)(F)[C@@H]3C[C@H]43)c21 [Compound 101H, N—((S)-1-(3-(4-chloro-1-methyl-3-(methylsulfonamido)-1H-indazol-7-yl)-6-((3,3-difluoro-1-hydroxycyclobutyl)ethynyl)pyridin-2-yl)-2-(3-fluorophenyl)ethyl)-2-((3bS,4aR)-3-(difluoromethyl)-5,5-difluoro-3b,4,4a,5-tetrahydro-1H-cyclopropa[3,4]cyclopenta[1,2-c]pyrazol-1-yl)acetamide] | – | – | 91 | 9.1 | – |
